Source: ChEMBL document CHEMBL3885861, “Open TG-GATES”

Species on record: Rattus norvegicus
Test: Open TG-GATES - Regimen: Single
Assay type: toxicity, organism-based, Sprague-Dawley
Set-up: regimen Single, gender Male, age 6 weeks
Settings: in vivo, po, route gavage; for TP / gamma-GTP / ALT / AST / BUN / CRE / DBIL / GLC / IP / K / LDH / RALB / TBIL / TC / ALP / PL: tissue Plasma; for APTT / Bas / Eos / Fbg / Ht / Lym / MCHC / MCV / Mono / PT / Plat / RBC / Ret / WBC: tissue Blood; for KIDNEY_L / KIDNEY_R / KIDNEY_TOTAL: tissue Kidney; for LIVER: tissue Liver
[1] = 30 mg/kg, 3 h, dose level Middle
[2] = 30 mg/kg, 6 h, dose level Middle
[3] = 30 mg/kg, 9 h, dose level Middle
[4] = 30 mg/kg, 24 h, dose level Middle
[5] = 100 mg/kg, 3 h, dose level High
[6] = 100 mg/kg, 6 h, dose level High
[7] = 100 mg/kg, 9 h, dose level High
[8] = 100 mg/kg, 24 h, dose level High

CN(C)CCCN1c2ccccc2CCc2ccccc21 [IMIPRAMINE]
TP (10 mg/kg, 24 h, dose level Low): 5.4 g/dL
gamma-GTP (10 mg/kg, 24 h, dose level Low): 1 IU/L
TERMINAL_BW [1]: 202.2 g
APTT [1]: 16.3 s
Bas [1]: 0.2%
Eos [1]: 1%
Fbg [1]: 313 mg/dL
Ht [1]: 42.7%
Lym [1]: 78.8%
MCHC [1]: 32.4%
MCV [1]: 65.8 fL
Mono [1]: 3%
PT [1]: 15.6 s
Plat [1]: 106.2 x10_4/uL
RBC [1]: 651.2 x10_4/ul
Ret [1]: 8.1%
WBC [1]: 75.9 x10_2/uL
KIDNEY_L [1]: 0.9 g
KIDNEY_R [1]: 0.9 g
KIDNEY_TOTAL [1]: 1.8 g
LIVER [1]: 9.5 g
ALT [1]: 43.4 IU/L
AST [1]: 70.2 IU/L
BUN [1]: 7.8 mg/dL
CRE [1]: 0.1 mg/dL
DBIL [1]: 0.008 mg/dL
GLC [1]: 191.6 mg/dL
IP [1]: 9.1 mg/dL
K [1]: 4 meq/L
LDH [1]: 88.4 IU/L
RALB [1]: 2.6 g/dL
TBIL [1]: 0.058 mg/dL
TC [1]: 79.2 mg/dL
TP [1]: 5.6 g/dL
gamma-GTP [1]: 1 IU/L
TERMINAL_BW [2]: 198.5 g
APTT [2]: 16.1 s
Bas [2]: 0%
Eos [2]: 1%
Fbg [2]: 311.6 mg/dL
Ht [2]: 41.9%
Lym [2]: 72.6%
MCHC [2]: 32.7%
MCV [2]: 63.9 fL
Mono [2]: 3.2%
PT [2]: 15.7 s
Plat [2]: 122.8 x10_4/uL
RBC [2]: 656 x10_4/ul
Ret [2]: 7.6%
WBC [2]: 81.3 x10_2/uL
KIDNEY_L [2]: 0.9 g
KIDNEY_R [2]: 0.9 g
KIDNEY_TOTAL [2]: 1.8 g
ALP [2]: 1270.6 IU/L
ALT [2]: 40.2 IU/L
AST [2]: 72.8 IU/L
BUN [2]: 6.2 mg/dL
CRE [2]: 0.1 mg/dL
DBIL [2]: 0.01 mg/dL
GLC [2]: 177.4 mg/dL
IP [2]: 9.8 mg/dL
K [2]: 4.1 meq/L
LDH [2]: 138.2 IU/L
RALB [2]: 2.5 g/dL
TBIL [2]: 0.062 mg/dL
TC [2]: 81.2 mg/dL
TP [2]: 5.4 g/dL
gamma-GTP [2]: 1.4 IU/L
TERMINAL_BW [3]: 197.4 g
APTT [3]: 15.4 s
Bas [3]: 0%
Eos [3]: 1%
Fbg [3]: 290.8 mg/dL
Ht [3]: 42.1%
Lym [3]: 78.4%
MCHC [3]: 32.5%
MCV [3]: 65.8 fL
Mono [3]: 1.8%
PT [3]: 15.8 s
Plat [3]: 111.8 x10_4/uL
RBC [3]: 639.4 x10_4/ul
Ret [3]: 7.8%
WBC [3]: 69.2 x10_2/uL
KIDNEY_L [3]: 0.9 g
KIDNEY_R [3]: 1 g
KIDNEY_TOTAL [3]: 1.9 g
LIVER [3]: 8.4 g
ALP [3]: 1205.4 IU/L
ALT [3]: 35.8 IU/L
AST [3]: 65.2 IU/L
BUN [3]: 5.8 mg/dL
CRE [3]: 0.1 mg/dL
DBIL [3]: 0.01 mg/dL
GLC [3]: 191 mg/dL
IP [3]: 9.6 mg/dL
K [3]: 4.1 meq/L
LDH [3]: 64.6 IU/L
PL [3]: 131.2 mg/dL
RALB [3]: 2.5 g/dL
TBIL [3]: 0.06 mg/dL
TC [3]: 68 mg/dL
TP [3]: 5.3 g/dL
gamma-GTP [3]: 0.8 IU/L
TERMINAL_BW [4]: 209.9 g
APTT [4]: 16.1 s
Bas [4]: 0%
Eos [4]: 1%
Fbg [4]: 298.2 mg/dL
Ht [4]: 41.7%
Lym [4]: 82%
MCHC [4]: 32.6%
MCV [4]: 64.6 fL
Mono [4]: 2.4%
PT [4]: 16.5 s
Plat [4]: 119.3 x10_4/uL
RBC [4]: 644.8 x10_4/ul
Ret [4]: 7.6%
WBC [4]: 75.5 x10_2/uL
KIDNEY_L [4]: 0.9 g
KIDNEY_R [4]: 0.9 g
KIDNEY_TOTAL [4]: 1.8 g
LIVER [4]: 9.2 g
ALP [4]: 1509.8 IU/L
ALT [4]: 45.6 IU/L
AST [4]: 69.6 IU/L
CRE [4]: 0.2 mg/dL
GLC [4]: 177 mg/dL
IP [4]: 7.8 mg/dL
K [4]: 4.2 meq/L
LDH [4]: 101.8 IU/L
RALB [4]: 2.7 g/dL
TBIL [4]: 0.06 mg/dL
TC [4]: 85.2 mg/dL
TP [4]: 5.6 g/dL
gamma-GTP [4]: 1 IU/L
TERMINAL_BW [5]: 202.6 g
APTT [5]: 16.3 s
Bas [5]: 0%
Eos [5]: 0.5%
Fbg [5]: 283.8 mg/dL
Ht [5]: 40.4%
Lym [5]: 72.5%
MCHC [5]: 32.8%
MCV [5]: 63.6 fL
Mono [5]: 3.2%
PT [5]: 15.8 s
Plat [5]: 110.1 x10_4/uL
RBC [5]: 635.8 x10_4/ul
Ret [5]: 8.6%
WBC [5]: 79.2 x10_2/uL
KIDNEY_L [5]: 0.9 g
KIDNEY_R [5]: 0.9 g
KIDNEY_TOTAL [5]: 1.8 g
LIVER [5]: 9.4 g
ALP [5]: 1336.2 IU/L
ALT [5]: 45 IU/L
AST [5]: 73.5 IU/L
BUN [5]: 6.8 mg/dL
CRE [5]: 0.1 mg/dL
DBIL [5]: 0.0125 mg/dL
GLC [5]: 190.8 mg/dL
IP [5]: 10 mg/dL
K [5]: 3.9 meq/L
LDH [5]: 61 IU/L
PL [5]: 138 mg/dL
RALB [5]: 2.5 g/dL
TBIL [5]: 0.07 mg/dL
TC [5]: 69 mg/dL
TP [5]: 5.3 g/dL
gamma-GTP [5]: 1.2 IU/L
TERMINAL_BW [6]: 200.3 g
APTT [6]: 15.9 s
Bas [6]: 0%
Eos [6]: 0.8%
Fbg [6]: 299.4 mg/dL
Ht [6]: 42.4%
Lym [6]: 71.2%
MCHC [6]: 32.2%
MCV [6]: 66.2 fL
Mono [6]: 3%
PT [6]: 15.8 s
Plat [6]: 108.9 x10_4/uL
RBC [6]: 641.6 x10_4/ul
Ret [6]: 8.3%
WBC [6]: 74.4 x10_2/uL
KIDNEY_L [6]: 0.9 g
KIDNEY_R [6]: 0.9 g
KIDNEY_TOTAL [6]: 1.8 g
ALP [6]: 1251.8 IU/L
ALT [6]: 37 IU/L
AST [6]: 64.2 IU/L
BUN [6]: 6.4 mg/dL
CRE [6]: 0.1 mg/dL
DBIL [6]: 0.01 mg/dL
GLC [6]: 182 mg/dL
IP [6]: 9.9 mg/dL
K [6]: 4 meq/L
LDH [6]: 62.8 IU/L
RALB [6]: 2.5 g/dL
TBIL [6]: 0.062 mg/dL
TC [6]: 83.8 mg/dL
TP [6]: 5.4 g/dL
gamma-GTP [6]: 1.2 IU/L
TERMINAL_BW [7]: 199.8 g
APTT [7]: 16.1 s
Bas [7]: 0.2%
Eos [7]: 0.8%
Fbg [7]: 309.4 mg/dL
Ht [7]: 42%
Lym [7]: 73%
MCHC [7]: 32.2%
MCV [7]: 66.8 fL
Mono [7]: 2.4%
PT [7]: 15.8 s
Plat [7]: 111.5 x10_4/uL
RBC [7]: 629.2 x10_4/ul
Ret [7]: 8.8%
WBC [7]: 70.8 x10_2/uL
KIDNEY_L [7]: 0.9 g
KIDNEY_R [7]: 0.9 g
KIDNEY_TOTAL [7]: 1.8 g
LIVER [7]: 8.3 g
ALP [7]: 1131.2 IU/L
ALT [7]: 35.6 IU/L
AST [7]: 63.6 IU/L
BUN [7]: 5.2 mg/dL
CRE [7]: 0.1 mg/dL
GLC [7]: 179.2 mg/dL
IP [7]: 10.2 mg/dL
K [7]: 4.1 meq/L
LDH [7]: 59.2 IU/L
RALB [7]: 2.5 g/dL
TBIL [7]: 0.056 mg/dL
TC [7]: 80.8 mg/dL
TP [7]: 5.4 g/dL
gamma-GTP [7]: 1 IU/L
TERMINAL_BW [8]: 198.2 g
APTT [8]: 16 s
Bas [8]: 0%
Eos [8]: 0.6%
Fbg [8]: 293.2 mg/dL
Ht [8]: 42.6%
Lym [8]: 82.6%
MCHC [8]: 32.4%
MCV [8]: 65.1 fL
Mono [8]: 2%
PT [8]: 16.6 s
Plat [8]: 116.4 x10_4/uL
RBC [8]: 655.2 x10_4/ul
Ret [8]: 7.3%
WBC [8]: 49 x10_2/uL
KIDNEY_L [8]: 0.9 g
KIDNEY_R [8]: 0.9 g
KIDNEY_TOTAL [8]: 1.8 g
LIVER [8]: 8.1 g
ALP [8]: 1350.6 IU/L
ALT [8]: 35.4 IU/L
AST [8]: 61 IU/L
BUN [8]: 12.8 mg/dL
CRE [8]: 0.2 mg/dL
DBIL [8]: 0.02 mg/dL
GLC [8]: 176.4 mg/dL
IP [8]: 8.2 mg/dL
K [8]: 4.5 meq/L
LDH [8]: 62.8 IU/L
PL [8]: 137.8 mg/dL
RALB [8]: 2.6 g/dL
TBIL [8]: 0.062 mg/dL
TC [8]: 83.2 mg/dL
TP [8]: 5.6 g/dL
gamma-GTP [8]: 1.2 IU/L
